# In ChEMBL document CHEMBL3885861, “Open TG-GATES”:
# Species on record: Rattus norvegicus
# Assay: Open TG-GATES - Regimen: Single
# Format: toxicity, organism-based, Sprague-Dawley
# Parameters: regimen Single, gender Male, age 6 weeks
# Details: in vivo, po, route gavage; for TP / gamma-GTP / A/G / ALP / ALT / AST / BUN / CRE / Ca / Cl / DBIL / GLC / IP / K / LDH / Na / PL / RALB / TBIL / TC / TG: tissue Plasma; for APTT / Bas / Eos / Fbg / Hb / Ht / Lym / MCH / MCHC / MCV / Mono / Neu / PT / Plat / RBC / Ret / WBC: tissue Blood; for KIDNEY_L / KIDNEY_R / KIDNEY_TOTAL: tissue Kidney; for LIVER: tissue Liver
# [1] = 2 mg/kg, 3 h, dose level Middle
# [2] = 2 mg/kg, 6 h, dose level Middle
# [3] = 2 mg/kg, 9 h, dose level Middle
structure (smiles),measurement,setting,value
COc1ccc2c(c1)c(CC(=O)O)c(C)n2C(=O)c1ccc(Cl)cc1 [INDOMETHACIN],TP,"1 mg/kg, 9 h, dose level Low",5.3 g/dL
same,gamma-GTP,"1 mg/kg, 9 h, dose level Low",1.4 IU/L
same,TERMINAL_BW,"1 mg/kg, 24 h, dose level Low",215.2 g
same,APTT,"1 mg/kg, 24 h, dose level Low",16.8 s
same,Bas,"1 mg/kg, 24 h, dose level Low",0%
same,Eos,"1 mg/kg, 24 h, dose level Low",0.8%
same,Fbg,"1 mg/kg, 24 h, dose level Low",198.2 mg/dL
same,Hb,"1 mg/kg, 24 h, dose level Low",13.5 g/dL
same,Ht,"1 mg/kg, 24 h, dose level Low",40.7%
same,Lym,"1 mg/kg, 24 h, dose level Low",79%
same,MCH,"1 mg/kg, 24 h, dose level Low",21.8 pg
same,MCHC,"1 mg/kg, 24 h, dose level Low",33.2%
same,MCV,"1 mg/kg, 24 h, dose level Low",65.6 fL
same,Mono,"1 mg/kg, 24 h, dose level Low",8.8%
same,Neu,"1 mg/kg, 24 h, dose level Low",11.4%
same,PT,"1 mg/kg, 24 h, dose level Low",12.3 s
same,Plat,"1 mg/kg, 24 h, dose level Low",112.3 x10_4/uL
same,RBC,"1 mg/kg, 24 h, dose level Low",620.8 x10_4/ul
same,Ret,"1 mg/kg, 24 h, dose level Low",9%
same,WBC,"1 mg/kg, 24 h, dose level Low",118.2 x10_2/uL
same,KIDNEY_L,"1 mg/kg, 24 h, dose level Low",1 g
same,KIDNEY_R,"1 mg/kg, 24 h, dose level Low",1 g
same,KIDNEY_TOTAL,"1 mg/kg, 24 h, dose level Low",1.9 g
same,LIVER,"1 mg/kg, 24 h, dose level Low",10.2 g
same,A/G,"1 mg/kg, 24 h, dose level Low",2.2
same,ALP,"1 mg/kg, 24 h, dose level Low",1141.2 IU/L
same,ALT,"1 mg/kg, 24 h, dose level Low",41.2 IU/L
same,AST,"1 mg/kg, 24 h, dose level Low",71 IU/L
same,BUN,"1 mg/kg, 24 h, dose level Low",16.6 mg/dL
same,CRE,"1 mg/kg, 24 h, dose level Low",0.5 mg/dL
same,Ca,"1 mg/kg, 24 h, dose level Low",10.3 mg/dL
same,Cl,"1 mg/kg, 24 h, dose level Low",105.2 meq/L
same,DBIL,"1 mg/kg, 24 h, dose level Low",0.016 mg/dL
same,GLC,"1 mg/kg, 24 h, dose level Low",202.6 mg/dL
same,IP,"1 mg/kg, 24 h, dose level Low",8.6 mg/dL
same,K,"1 mg/kg, 24 h, dose level Low",5.1 meq/L
same,LDH,"1 mg/kg, 24 h, dose level Low",85 IU/L
same,Na,"1 mg/kg, 24 h, dose level Low",138.4 meq/L
same,PL,"1 mg/kg, 24 h, dose level Low",152.8 mg/dL
same,RALB,"1 mg/kg, 24 h, dose level Low",3.9 g/dL
same,TBIL,"1 mg/kg, 24 h, dose level Low",0.3 mg/dL
same,TC,"1 mg/kg, 24 h, dose level Low",88.4 mg/dL
same,TG,"1 mg/kg, 24 h, dose level Low",72 mg/dL
same,TP,"1 mg/kg, 24 h, dose level Low",5.7 g/dL
same,gamma-GTP,"1 mg/kg, 24 h, dose level Low",1 IU/L
same,TERMINAL_BW,[1],195.5 g
same,APTT,[1],17 s
same,Bas,[1],0%
same,Eos,[1],0.8%
same,Fbg,[1],215 mg/dL
same,Hb,[1],13.5 g/dL
same,Ht,[1],40.3%
same,Lym,[1],80.2%
same,MCH,[1],22.2 pg
same,MCHC,[1],33.5%
same,MCV,[1],66.2 fL
same,Mono,[1],8%
same,Neu,[1],11.4%
same,PT,[1],12.6 s
same,Plat,[1],109.7 x10_4/uL
same,RBC,[1],609.4 x10_4/ul
same,Ret,[1],10.3%
same,WBC,[1],99.3 x10_2/uL
same,KIDNEY_L,[1],0.9 g
same,KIDNEY_R,[1],0.9 g
same,KIDNEY_TOTAL,[1],1.8 g
same,LIVER,[1],8.7 g
same,A/G,[1],1.6
same,ALP,[1],1158.6 IU/L
same,ALT,[1],39.8 IU/L
same,AST,[1],74.4 IU/L
same,BUN,[1],10.6 mg/dL
same,CRE,[1],0.4 mg/dL
same,Ca,[1],10.3 mg/dL
same,Cl,[1],105.8 meq/L
same,DBIL,[1],0.056 mg/dL
same,GLC,[1],185.2 mg/dL
same,IP,[1],10 mg/dL
same,K,[1],4.8 meq/L
same,LDH,[1],99.4 IU/L
same,Na,[1],137.4 meq/L
same,PL,[1],125 mg/dL
same,RALB,[1],3.7 g/dL
same,TBIL,[1],0.4 mg/dL
same,TC,[1],72.2 mg/dL
same,TG,[1],40 mg/dL
same,TP,[1],6 g/dL
same,gamma-GTP,[1],1.2 IU/L
same,TERMINAL_BW,[2],199.6 g
same,APTT,[2],17 s
same,Bas,[2],0%
same,Eos,[2],0.8%
same,Fbg,[2],206.8 mg/dL
same,Hb,[2],13.3 g/dL
same,Ht,[2],40.2%
same,Lym,[2],81.2%
same,MCH,[2],21.6 pg
same,MCHC,[2],33.2%
same,MCV,[2],65.1 fL
same,Mono,[2],6.4%
same,Neu,[2],12%
same,PT,[2],12.5 s
same,Plat,[2],106.7 x10_4/uL
same,RBC,[2],617.8 x10_4/ul
same,Ret,[2],9.6%
same,WBC,[2],84.6 x10_2/uL
same,KIDNEY_L,[2],0.9 g
same,KIDNEY_R,[2],0.9 g
same,KIDNEY_TOTAL,[2],1.8 g
same,LIVER,[2],8.6 g
same,A/G,[2],1.8
same,ALP,[2],959 IU/L
same,ALT,[2],36.8 IU/L
same,AST,[2],75 IU/L
same,BUN,[2],10.6 mg/dL
same,CRE,[2],0.5 mg/dL
same,Ca,[2],10.1 mg/dL
same,Cl,[2],107 meq/L
same,DBIL,[2],0.036 mg/dL
same,GLC,[2],188.4 mg/dL
same,IP,[2],9.1 mg/dL
same,K,[2],4.9 meq/L
same,LDH,[2],91.4 IU/L
same,Na,[2],137.4 meq/L
same,PL,[2],120.8 mg/dL
same,RALB,[2],3.8 g/dL
same,TBIL,[2],0.3 mg/dL
same,TC,[2],73.4 mg/dL
same,TG,[2],38.6 mg/dL
same,TP,[2],5.9 g/dL
same,gamma-GTP,[2],2.2 IU/L
same,TERMINAL_BW,[3],198.4 g
same,APTT,[3],16.6 s
same,Bas,[3],0%
same,Eos,[3],0.6%
same,Fbg,[3],210 mg/dL
same,Hb,[3],13.1 g/dL
same,Ht,[3],39.8%
same,Lym,[3],79.6%
same,MCH,[3],21.8 pg
same,MCHC,[3],33%
same,MCV,[3],66.1 fL
same,Mono,[3],8.2%
same,Neu,[3],11.8%
same,PT,[3],12.4 s
same,Plat,[3],108.3 x10_4/uL
same,RBC,[3],602.2 x10_4/ul
same,Ret,[3],9.7%
